Converted amounts (≈) assume the structure as drawn. Like-named read-outs stand apart in the source and are kept apart here. Residues, ends and D or L forms follow the SMILES beside them. No end group written: not given here.
Legend:
E. coli ATCC25922 = format: cell-based
Experimental: (§1) Antimicrobial activity was determined against a range of bacteria and fungi from humans and animals using a broth microdilution susceptibility assay according to clinical laboratory standards institute (CLSI) guidelines in 96 well polypropylene plates as described previously. Briefly, cathelicidins were dissolved in DMSO and serially diluted, in cation-adjusted Mueller Hinton Broth (MH II B) with or without 10% lysed horse blood for bacteria, and yeast nitrogen base (YNB) for fungi. Cathelicidin concentrations ranged between 64μg/mL and 0.125μg/mL in a final volume of 100μL. For all bacteria and fungi tested, ampicillin, tetracycline and fluconazole were included as positive controls, in addition to a media-only control and growth control (no inhibitor). Bacteria and fungi were sub-cultured 20–24 hours prior to the test, suspended in saline and their concentration adjusted to a 0.5 McFarland standard. Microorganisms were then diluted to a concentration of 0.5–1.0x10^6 cells/mL, with colony counts performed to confirm microorganism density, and 100μL was dispensed into the wells of the cathelicidin dilution plate. All plates were incubated at 35°C for 20–48 hours depending on the strain. Antimicrobial activity was expressed as minimum inhibitory concentration (MIC), which was defined as the lowest concentration of cathelicidin preventing visible bacterial growth, relative to the no-drug control. The same microdilution susceptibility assay was performed using Mueller Hinton Broth without the addition of the divalent cations calcium and magnesium (MHB), to test the effect of the cations on PhciCath5 activity against the ATCC strains E. coli 25922 and S. aureus 29213.

P. aeruginosa ATCC27853 = format: cell-based
Experimental: as §1

S. agalactiae ATCC12386 = format: cell-based
Experimental: as §1

S. aureus ATCC29213 = format: cell-based
Experimental: as §1

S. dysgalactiae = format: cell-based
Experimental: as §1

S. lutetiensis = format: cell-based
Experimental: as §1

S. mutans = format: cell-based
Experimental: as §1

S. oralis = format: cell-based
Experimental: as §1

S. pneumoniae ATCC49619 = format: cell-based
Experimental: as §1

S. pyogenes ATCC19615 = format: cell-based
Experimental: as §1

S. salivarius = format: cell-based
Experimental: as §1

MRSA (animal isolate) = format: cell-based, Staphylococcus aureus; settings: broth microdilution (CLSI), MH II B with magnesium and calcium cations, 35°C, 20–48 hours
Experimental: as §1, with “All plates were incubated at 35°C for 20–48 hours depending on the strain.” left out, “The same microdilution susceptibility assay was performed using Mueller Hinton Broth without the addition of the divalent cations calcium and magnesium (MHB), to test the effect of the cations on PhciCath5 activity against the ATCC strains E. coli 25922 and S. aureus 29213.” left out

C. albicans = test: Broth microdilution susceptibility assay (MIC); format: cell-based; settings: broth microdilution (CLSI), yeast nitrogen base (YNB) for fungi, 35°C, 20–48 hours
Experimental: as §1

C. glabrata = test: Broth microdilution susceptibility assay (MIC); format: cell-based; settings: broth microdilution (CLSI), yeast nitrogen base (YNB) for fungi, 35°C, 20–48 hours
Experimental: as §1

E. coli (animal isolate) = test: Broth microdilution susceptibility assay (MIC); format: cell-based; settings: broth microdilution (CLSI), MH II B with magnesium and calcium cations, 35°C, 20–48 hours
Experimental: as §1

[1] = tested on: K. pneumoniae (animal isolate); test: Broth microdilution susceptibility assay (MIC); format: cell-based; settings: broth microdilution (CLSI), MH II B with magnesium and calcium cations, 35°C, 20–48 hours
Experimental: as §1

[2] = tested on: L. monocytogenes (animal isolate); test: Broth microdilution susceptibility assay (MIC); format: cell-based; settings: broth microdilution (CLSI), MH II B with magnesium and calcium cations, 35°C, 20–48 hours
Experimental: as §1

[3] = tested on: P. aeruginosa (animal isolate); test: Broth microdilution susceptibility assay (MIC); format: cell-based; settings: broth microdilution (CLSI), MH II B with magnesium and calcium cations, 35°C, 20–48 hours
Experimental: as §1

[4] = tested on: P. multocida (animal isolate); test: Broth microdilution susceptibility assay (MIC); format: cell-based; settings: broth microdilution (CLSI), MH II B with magnesium and calcium cations, 35°C, 20–48 hours
Experimental: as §1

[5] = tested on: S. agalactiae (animal isolate); test: Broth microdilution susceptibility assay (MIC); format: cell-based; settings: broth microdilution (CLSI), MH II B with magnesium and calcium cations, 35°C, 20–48 hours
Experimental: as §1

[6] = tested on: S. aureus (animal isolate); test: Broth microdilution susceptibility assay (MIC); format: cell-based; settings: broth microdilution (CLSI), MH II B with magnesium and calcium cations, 35°C, 20–48 hours
Experimental: as §1

S. equi (animal isolate) = test: Broth microdilution susceptibility assay (MIC); format: cell-based; settings: broth microdilution (CLSI), MH II B with magnesium and calcium cations, 35°C, 20–48 hours
Experimental: as §1

[7] = tested on: C. parapsilosis ATCC 22019; test: Broth microdilution susceptibility assay (MIC); format: cell-based, Candida parapsilosis; settings: broth microdilution (CLSI), yeast nitrogen base (YNB) for fungi, 35°C, 20–48 hours
Experimental: as §1, with “All plates were incubated at 35°C for 20–48 hours depending on the strain.” left out, “The same microdilution susceptibility assay was performed using Mueller Hinton Broth without the addition of the divalent cations calcium and magnesium (MHB), to test the effect of the cations on PhciCath5 activity against the ATCC strains E. coli 25922 and S. aureus 29213.” left out

C. krusei ATCC 6258 = test: Broth microdilution susceptibility assay (MIC); format: cell-based, Candida krusei; settings: broth microdilution (CLSI), yeast nitrogen base (YNB) for fungi, 35°C, 20–48 hours
Experimental: as §1, with “All plates were incubated at 35°C for 20–48 hours depending on the strain.” left out, “The same microdilution susceptibility assay was performed using Mueller Hinton Broth without the addition of the divalent cations calcium and magnesium (MHB), to test the effect of the cations on PhciCath5 activity against the ATCC strains E. coli 25922 and S. aureus 29213.” left out

C. pecorum IPTaLE = test: Chlamydia pecorum antimicrobial susceptibility (elementary body inactivation, IFU/mL); format: cell-based; settings: 125, 250 and 500μg/mL; less than half an order of magnitude difference in chlamydial inclusions compared with the control
Experimental: (§2) C. pecorum IPTaLE and MarsBar were cultured in mouse McCoy B cells, on DMEM supplemented with 10% foetal calf serum (FCS), 0.1mg/mL streptomycin and 0.05mg/mL gentamicin at 37°C in a 5% CO2 atmosphere. Cell lines were routinely tested for mycoplasma contamination every 2 months. Prior to performing antimicrobial susceptibility assays, 96-well plates were seeded with 30,000 host cells per well 24 hours prior to chlamydial infection as described previously. For the antimicrobial assays, koala cathelicidin mature peptides, PhciCath1, 2, 3, 5 and 6, were solubilized in water for cell culture with 0.01% acetic acid, and two-fold dilutions were made in sucrose-phosphate-glutamic acid (SPG) media from 1mg to 250μg/mL, in triplicate. Cathelicidin containing wells were diluted one in two with C. pecorum IPTaLE and MarsBar EBs and incubated for 2 hours at 37°C, giving a final cathelicidin concentration of 500, 250 and 125μg/mL. A negative SPG only control was included. To exclude the possibility of cathelicidin toxicity to McCoy cells, cathelicidin dilutions were removed by centrifugation and C. pecorum EBs re-suspended in DMEM supplemented with 10% FCS, 0.1mg/mL streptomycin and 0.05mg/mL gentamycin. The suspension was used to infect a McCoy B ATCC CRL-1696 cell monolayer at a Multiplicity of Infection (MOI) of 0.6 as described previously. […]

C. pecorum MarsBar = test: as above; format: cell-based; settings: 125, 250 and 500μg/mL; less than half an order of magnitude difference in chlamydial inclusions compared with the control
Experimental: as §2

C. trachomatis = settings: cited from earlier work
Description: Koala cathelicidin PhciCath5 inactivated C. pecorum MarsBar and IPTaLE elementary bodies (EB) and was the only peptide tested that caused biologically and statistically significant reductions in chlamydial inclusions. […] Timing of cathelicidin release from immune and epithelial cells within the host may not enable direct interaction with EB. […] Indeed, proteases secreted by this C. trachomatis neutralise LL-37 anti-chlamydial activity, thereby evading AMP attack and ensuring extracellular EB survival. ...

Molecule: CC[C@H](C)[C@H](NC(=O)CNC(=O)CNC(=O)[C@H](CCCNC(=N)N)NC(=O)[C@@H](N)CCCCN)C(=O)N[C@@H](Cc1c[nH]c2ccccc12)C(=O)N[C@@H](CCCCN)C(=O)N[C@@H](CC(C)C)C(=O)N[C@H](C(=O)N[C@@H](CCCNC(=N)N)C(=O)N1CCC[C@H]1C(=O)N[C@@H](CC(C)C)C(=O)NCC(=O)N[C@@H](CCCNC(=N)N)C(=O)NCC(=O)N[C@@H](C)C(=O)NCC(=O)N[C@@H](CCCNC(=N)N)C(=O)N[C@H](C(=O)N[C@@H](CC(C)C)C(=O)N[C@@H](CCCNC(=N)N)C(=O)N[C@@H](Cc1c[nH]cn1)C(=O)N[C@@H](Cc1ccccc1)C(=O)N[C@@H](Cc1c[nH]cn1)C(=O)N[C@H](C(=O)N[C@@H](CC(=O)O)C(=O)N[C@@H](Cc1ccccc1)C(=O)N[C@@H](CS)C(=O)NCC(=O)N[C@@H](CC(N)=O)C(=O)N[C@@H](CS)C(=O)O)[C@@H](C)CC)[C@@H](C)CC)[C@@H](C)CC [PhciCath5] (H-KRGGIWKLIRPLGRGAGRILRHFHIDFCGNC-OH)
- MIC (E. coli ATCC25922): 64 µg/mL (≈ 18 µM)
- MIC (in brackets) (E. coli ATCC25922): 11 µg/mL (≈ 3.1 µM)
- MIC (P. aeruginosa ATCC27853): >64 µg/mL
- MIC (S. agalactiae ATCC12386): 64 µg/mL (≈ 18 µM)
- MIC (S. aureus ATCC29213): 16 µg/mL (≈ 4.51 µM)
- MIC (in brackets) (S. aureus ATCC29213): 11 µg/mL (≈ 3.1 µM)
- MIC (S. dysgalactiae): >64 µg/mL
- MIC (S. lutetiensis): >64 µg/mL
- MIC (S. mutans): >64 µg/mL
- MIC (S. oralis): >64 µg/mL
- MIC (S. pneumoniae ATCC49619): >64 µg/mL
- MIC (S. pyogenes ATCC19615): 64 µg/mL (≈ 18 µM)
- MIC (S. salivarius): 64 µg/mL (≈ 18 µM)
- MIC (MRSA (animal isolate)): 16 µg/mL (≈ 4.51 µM)
- MIC (C. albicans): >64 µg/mL
- MIC (C. glabrata): >64 µg/mL
- MIC (E. coli (animal isolate)): 16 µg/mL (≈ 4.51 µM)
- MIC [1]: >64 µg/mL
- MIC [2]: 64 µg/mL (≈ 18 µM)
- MIC [3]: >64 µg/mL
- MIC [4]: >64 µg/mL
- MIC [5]: 64 µg/mL (≈ 18 µM)
- MIC [6]: 8 µg/mL (≈ 2.25 µM)
- MIC (S. equi (animal isolate)): >64 µg/mL
- MIC [7]: 32 µg/mL (≈ 9.02 µM)
- MIC (C. krusei ATCC 6258): 64 µg/mL (≈ 18 µM)

Molecule: CC[C@H](C)[C@H](NC(=O)[C@H](CCCNC(=N)N)NC(=O)[C@H](CCCCN)NC(=O)[C@H](Cc1ccccc1)NC(=O)[C@H](CCCNC(=N)N)NC(=O)[C@H](CC(C)C)NC(=O)[C@@H]1CCCN1C(=O)[C@H](CCC(=O)O)NC(=O)[C@@H]1CCCN1C(=O)[C@@H]1CCCN1)C(=O)N[C@@H](CCCNC(=N)N)C(=O)N[C@@H](CS)C(=O)N[C@@H](CC(C)C)C(=O)N[C@@H](CC(N)=O)C(=O)NCC(=O)N[C@@H](CCCNC(=N)N)C(=O)N[C@@H](CCCCN)C(=O)N[C@@H](CS)C(=O)N[C@@H](CC(N)=O)C(=O)N[C@@H](Cc1ccc(O)cc1)C(=O)N[C@@H](Cc1c[nH]cn1)C(=O)N[C@@H](CC(N)=O)C(=O)N[C@@H](CC(C)C)C(=O)N[C@@H](CC(C)C)C(=O)N[C@@H](CC(C)C)C(=O)N[C@H](C(=O)N[C@H](C(=O)N[C@H](C(=O)N1CCC[C@H]1C(=O)N[C@@H](Cc1c[nH]cn1)C(=O)N[C@@H](Cc1c[nH]c2ccccc12)C(=O)N[C@@H](CCCNC(=N)N)C(=O)N[C@H](C(=O)N1CCC[C@H]1C(=O)N[C@@H](CCCCN)C(=O)NCC(=O)N[C@@H](CCCCN)C(=O)O)[C@@H](C)CC)C(C)C)[C@@H](C)CC)[C@@H](C)O [PhciCath3] (H-PPEPLRFKRIRCLNGRKCNYHNLLLTIVPHWRIPKGK-OH)
- activity against C. pecorum IPTaLE up to 500ug/mL (C. pecorum IPTaLE): ineffective
- activity against C. pecorum MarsBar up to 500ug/mL (C. pecorum MarsBar): ineffective

Molecule: PG-1: pig protegrin PG-1, a eutherian cathelicidin (RGGRLCYCRRRFCVCVGR; ends and bridges not checked; cysteine pairing not given here; UniProt P32194 131-148, looked up)
- concentration which reduced the infectivity of C. trachomatis (C. trachomatis; single round of infection): 1.25 µg/mL
- reduction in infectivity (C. trachomatis; treatment of extracellular EBs): ~100%
- reduction in infectivity (C. trachomatis; treatment of intracellular C. trachomatis): 67%
